Test results published in patent publication US20170313669A1, “LACTONE COMPOUNDS AND METHODS OF MAKING AND USING SAME” (THE SCRIPPS RESEARCH INSTITUTE, priority 2015, published 2017).

Molecular target: T1, ABHD16A (Homo sapiens, UniProt O95870)
T1 sequence (O95870 1-558): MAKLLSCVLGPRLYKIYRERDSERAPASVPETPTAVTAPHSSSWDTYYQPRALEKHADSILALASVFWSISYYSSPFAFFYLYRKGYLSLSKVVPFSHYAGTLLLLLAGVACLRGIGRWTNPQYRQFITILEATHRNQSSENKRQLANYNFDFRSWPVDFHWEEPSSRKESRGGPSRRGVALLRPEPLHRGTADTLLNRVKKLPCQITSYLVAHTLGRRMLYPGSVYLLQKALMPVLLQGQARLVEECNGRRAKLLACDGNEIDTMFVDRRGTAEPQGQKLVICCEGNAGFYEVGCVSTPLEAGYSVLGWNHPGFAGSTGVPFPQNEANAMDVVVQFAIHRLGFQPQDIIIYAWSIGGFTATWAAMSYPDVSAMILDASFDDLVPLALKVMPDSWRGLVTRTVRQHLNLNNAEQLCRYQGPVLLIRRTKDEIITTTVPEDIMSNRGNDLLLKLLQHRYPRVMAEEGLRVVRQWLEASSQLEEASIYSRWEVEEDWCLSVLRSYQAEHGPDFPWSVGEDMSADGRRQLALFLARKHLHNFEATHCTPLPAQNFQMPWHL
Assay: PS substrate assay, human ABHD16A-transfected HEK293T membrane proteome
Type: biochemical
Parameters: transiently transfected with 12 μg of the full-length cDNA of human ABHD16A (Open Biosystems Catalog # MHS6278-202758315); host or cells: HEK293T, transient, pCMV-SPORT6
Method: HEK293T cells were grown to 40% confluence in a 15 cm dish in 25 mL of Dulbecco's modified Eagle medium (DMEM) supplemented with L-glutamine and 10% (vol/vol) FCS at 37° C. and 5% CO2 (vol/vol). The cells were transiently transfected with 12 μg of the full-length cDNA of human ABHD16A (Open Biosystems Catalog # MHS6278-202758315) or murine ABHD16A (Open Biosystems Catalog # MMM1013-202760516) in pCMV-SPORT6 vector using 40 μg polyethyleneimine “MAX” (MW 40,000) (PEI) (Polysciences Inc. Catalog #24765) as the transfection reagent as per manufacturer's instructions. As a “mock” control, an empty vector was transiently transfected. […] Protein concentration was measured using the Bio-Rad DC Protein Assay Kit as per manufacturer's protocol, and ABHD16A expression was confirmed using gel-based ABPP.
All the lipid species used in the lipid substrate hydrolysis assays were purchased from Avanti Polar Lipids Inc unless mentioned otherwise. […] All the data was collected and analyzed using the Agilent MassHunter Workstation software version B.04 using the Data Acquisition and Quantitative Analysis programs respectively. Measuring the area under the peak, and normalizing it to the internal standard quantified the product release for the lipid substrate hydrolysis assays. […] Some products from the substrate hydrolysis assays were detected in positive ion mode for qualitative identification. […]

**Q.** For `CCCCCCCCCCCCCC1OC(=O)/C1=C\CCCCC(N)=O` (stereo not shown) [KC01, (Z)-6-(2-oxo-4-tridecyloxetan-3-ylidene)hexanamide], which IC50 is on record?
**A.** 90 ± 20 nM
